Experimental data: BindingDB's records for doi:10.7270/Q2TX3CTT (Broad Institute, 2010)
Counter-ions that a name gives are not always drawn.

These compounds were tested against Glycogen synthase kinase-3 beta (Homo sapiens, UniProt P49841) (assay: concentration-response blocking of human GSK3B – biochemical, luminescence, cell-free homogeneous, retest, dose response (AID 434954)).
Chain of Glycogen synthase kinase-3 beta (P49841 whole entry): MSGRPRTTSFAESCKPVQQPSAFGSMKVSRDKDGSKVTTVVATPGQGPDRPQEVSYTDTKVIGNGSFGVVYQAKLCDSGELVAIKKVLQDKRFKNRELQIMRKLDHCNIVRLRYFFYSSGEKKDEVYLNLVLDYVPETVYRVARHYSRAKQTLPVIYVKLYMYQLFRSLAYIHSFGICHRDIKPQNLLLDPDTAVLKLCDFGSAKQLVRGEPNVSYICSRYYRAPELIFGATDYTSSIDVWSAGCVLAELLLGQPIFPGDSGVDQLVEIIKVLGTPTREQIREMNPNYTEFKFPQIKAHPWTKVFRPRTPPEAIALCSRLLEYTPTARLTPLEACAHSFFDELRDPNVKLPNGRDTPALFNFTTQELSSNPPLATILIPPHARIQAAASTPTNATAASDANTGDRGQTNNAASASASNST

| SMILES | EC50 [µM] |
| --- | --- |
| N#Cc1c2n(c3c(S)ncnc13)CCCCC2 [4-sulfanylidene-1,6,7,8,9,10-hexahydropyrimido[3,4]pyrrolo[3,5-a]azepine-11-carbonitrile] | 0.304 |
| Nc1nc(NCCCN2CCOCC2)nc(NCc2ccccc2)c1[N+](=O)[O-] [N'-Benzyl-N-(3-morpholin-4-yl-propyl)-5-nitro-pyrimidine-2,4,6-triamine] | 8.32 |
| COc1ccc(Cl)cc1-n1c(C)ccc1C [MLS000680869] | > 300 |
| COC(=O)c1c(N)c(C#N)c2n1CCCCC2 [methyl 2-amino-1-cyano-6,7,8,9-tetrahydro-5H-pyrrolo[1,2-a]azepine-3-carboxylate] | > 300 |
| CN(C)c1ccc(C=NNC(=O)c2nnn(-c3nonc3N)c2CN2CCCCCC2)cc1 [1-(4-amino-1,2,5-oxadiazol-3-yl)-5-(1-azepanylmethyl)-N-[[4-(dimethylamino)phenyl]methylideneamino]-4-triazolecarboxamide] | > 300 |
| CN(C)CCc1cc2c(c3c1ccc1ccccc13)OCO2 [N,N-dimethyl-2-(5-naphtho[2,1-g][1,3]benzodioxolyl)ethanamine;hydrochloride] | 25.9 |
| O=C(Cc1ccc(F)cc1)NN=Cc1ccc(-c2ccc(Cl)c(C(=O)O)c2)o1 | > 300 |
| O=C1Nc2cc(C(=O)NCCCN3CCCC3)ccc2S/C1=C/c1ccccc1F [(2E)-2-[(2-fluorophenyl)methylidene]-3-oxo-N-(3-pyrrolidin-1-ylpropyl)-4H-1,4-benzothiazine-6-carboxamide] | 6.99 |
| CC1(C)CC(=O)C=C(Nc2ccc(F)cc2F)C1 | > 300 |
| O=c1cc(-c2ccc(O)c(O)c2)oc2cc(O)cc(O)c12 [2-(3,4-dihydroxyphenyl)-5,7-dihydroxy-4H-chromen-4-one] | 3.81 |
| CN(C)Cc1ccc(-c2nc3cccc4c3n2CCNC4=O)cc1 | 27.5 |
| COc1ccc(CN(CC(=O)NCc2ccccc2)C(=O)CCC(=O)Nc2cc(C)ccn2)cc1 [N-(Benzylcarbamoyl-methyl)-N-(4-methoxy-benzyl)-N'-(4-methyl-pyridin-2-yl)-succinamide] | 21.3 |
| Cc1cc(=O)[nH]c(N=NCc2ccc(-c3ccc([N+](=O)[O-])cc3)o2)n1 [SMR000589712] | > 300 |
| COc1ccc(OC)c(C(=O)c2coc3ccc(OCC(=O)O)cc23)c1 [SMR000135205] | > 300 |
| O=Cc1ccc(N2CCCC2)c([N+](=O)[O-])c1 [SMR000383989] | > 300 |
| CCOC(=O)c1cnc2ccc(OC)cc2c1NCCN1CCOCC1 [SMR000518517] | > 300 |
| COC(=O)c1ccccc1OCCOc1ccccc1C(=O)OC | > 300 |
| CCCn1nc(NC(=O)C(C)(C)C)c2cc3cc(OC)ccc3nc21 [N-(6-methoxy-1-propylpyrazolo[3,4-b]quinolin-3-yl)-2,2-dimethylpropanamide] | 63.8 |
| O=C(c1ccc(Cl)nc1)N1CCN(C/C=C/c2ccccc2)CC1 [SMR000352615] | > 300 |
| Nc1nonc1-n1nnc(C(=O)NN=Cc2c(Cl)cccc2Cl)c1CN1CCOCC1 [1-(4-azanyl-1,2,5-oxadiazol-3-yl)-N-[[2,6-bis(chloranyl)phenyl]methylideneamino]-5-(morpholin-4-ylmethyl)-1,2,3-triazole-4-carboxamide] | 55.2 |
| Nc1nc(NCc2ccccc2)nc(NCCO)c1[N+](=O)[O-] [MLS000332798] | 71.9 |
| C[n+]1ccccc1C=Cc1cc(Br)ccc1O [SMR000554448] | > 300 |
| Cc1cccc(N2CCN(C(=O)c3csc4ccccc34)CC2C)c1 (stereo not given) [4-(1-benzothien-3-ylcarbonyl)-2-methyl-1-(3-methylphenyl)piperazine] | > 300 |
| Cc1c(NC(=O)CSc2nnc3sc4ccccc4n23)c(=O)n(-c2ccccc2)n1C [MLS000060665] | > 300 |

| SMILES | EC50 [µM] |
| --- | --- |
| COc1ccccc1-c1ccc(=O)n(CC(=O)NCc2ccco2)n1 [N-(furan-2-ylmethyl)-2-[3-(2-methoxyphenyl)-6-oxidanylidene-pyridazin-1-yl]ethanamide] | > 300 |
| CC(O)c1cccc(NC2=CC(=O)CC(C)(C)C2)c1 (stereo not given) | > 300 |
| COc1ccc(-n2nc3c(N)n[nH]c3cc2=O)cc1 [SMR000337768] | 14.1 |
| O=c1c2c3c(sc2nc2n1N=C(c1cccs1)CS2)CCCC3 [SMR000161302] | > 300 |
| COc1ccc(Oc2c(C)oc3c(CN(C)C)c(O)ccc3c2=O)cc1 | > 300 |
| CS(=O)(=O)N(CCc1ccccc1)CC(=O)N1CCN(c2ccccc2F)CC1 | > 300 |
| CC(C)(C)C(=O)c1sc(Nc2ccccc2)nc1N [1-(4-amino-2-anilino-1,3-thiazol-5-yl)-2,2-dimethyl-1-propanone] | 1 |
| COCCN(CC(=O)NCc1ccc(OC)cc1)C(=O)CCC(=O)Nc1nccs1 [MLS000032576] | > 300 |
| C[N+](C)=c1ccn(CC(=O)N2c3ccccc3Sc3ccccc32)cc1 | > 300 |
| O=C(CCS(=O)(=O)c1ccccc1)Nc1cccc2c1C(=O)NC2=O [3-(benzenesulfonyl)-N-(1,3-dioxoisoindol-4-yl)propanamide] | 25.2 |
| CCCn1nc(NC(=O)CC(C)C)c2cc3ccccc3nc21 [SMR000043522] | > 300 |
| CCN(CC)C(=O)CSc1nc(N)c(C#N)c(-c2cccs2)c1C#N [SMR000115110] | > 300 |
| O=C(O)c1cccc(CSc2nnc(-c3cccnc3)o2)c1 [SMR000503811] | > 300 |
| O=C(NCC(c1ccco1)N1CCc2ccccc2C1)c1ccccc1Cl (stereo not given) [2-chloro-N-[2-(3,4-dihydro-1H-isoquinolin-2-yl)-2-(2-furanyl)ethyl]benzamide] | > 300 |
| C[C@H]1[C@@H](c2ccccc2)O[C@@H](c2ccccc2Br)N1C [MLS001242758] | > 300 |
| COC1=C/C(=C/c2c(N)n3cc(C)sc3nc2=O)C=CC1=O | > 300 |
| NC(=O)c1c(NC(=O)c2ccncc2)sc2c1CCCC2 | > 300 |
| O=C(OCCN1CCOCC1)c1ccc(O)cc1 [SMR000513589] | > 300 |
| CC1(C)N=C(N)N=C(N)N1c1ccc(Oc2ccc(Cl)cc2)c(Cl)c1 [1-[3-chloro-4-(4-chlorophenoxy)phenyl]-6,6-dimethyl-1,3,5-triazine-2,4-diamine;hydrochloride] | > 300 |
| O=C(NN=Cc1ccc(Br)s1)c1cccnc1 | > 300 |
| Cc1n[nH]c2c1[C@@H](c1ccccc1[N+](=O)[O-])C(C#N)C(=N)O2 (stereo partly drawn) [(4S)-6-azanyl-3-methyl-4-(2-nitrophenyl)-2,4-dihydropyrano[2,3-c]pyrazole-5-carbonitrile] | 9.65 |
| O=C(CSc1ccc2nnc(-c3ccc(F)cc3)n2n1)N1CCOCC1 [2-[[3-(4-fluorophenyl)-[1,2,4]triazolo[4,3-b]pyridazin-6-yl]sulfanyl]-1-morpholin-4-yl-ethanone] | > 300 |
| CC(C)(C)NC1=NN=C(c2ccc(Cl)cc2)CS1 [N-tert-butyl-5-(4-chlorophenyl)-6H-1,3,4-thiadiazin-2-amine] | > 300 |
| N#Cc1c(N)n(-c2cccc(O)c2)c2nc3ccccc3nc12 [SMR000413688] | > 300 |

| SMILES | EC50 [µM] |
| --- | --- |
| CC(C)N(Cc1nnc(-c2ccc(Cl)cc2)o1)C(=O)C1=COCCO1 | > 300 |
| COc1cc(C(=O)Nc2cccc(-c3nc4ncccc4o3)c2C)cc(OC)c1OC [MLS000039714] | > 300 |
| O=C1N=C(NS(=O)(=O)Cc2ccccc2)S/C1=C/c1ccc2c(c1)OCO2 [N-[5-[1-Benzo[1,3]dioxol-5-yl-meth-(E)-ylidene]-4-oxo-thiazolidin-(2E)-ylidene]-C-phenyl-methanesulfon amide] | 18.8 |
| CCOC(=O)c1c(C)[nH]c(C)c1C(=O)CN1C(=O)NC(CC(C)C)C1=O (stereo not given) [ethyl 2,5-dimethyl-4-[2-[4-(2-methylpropyl)-2,5-dioxoimidazolidin-1-yl]acetyl]-1H-pyrrole-3-carboxylate] | > 300 |
| CC(C)N(C(=O)Cc1ccccc1[N+](=O)[O-])C(C)C [SMR000291889] | > 300 |
| C=CCNC(=O)/C(=C\c1cccc([N+](=O)[O-])c1)NC(=O)c1ccccc1 | > 300 |
| CC1(C)CC(=O)C=C(NCc2ccccc2)C1 [SMR000186728] | > 300 |
| COc1ccc(C(=O)ON=C(N)c2ccccn2)cc1 [SMR000608101] | 13.2 |
| O=[N+]([O-])c1ccc2ccn(C3OCC(O)C(O)C3O)c2c1 (stereo not given) [SMR000283162] | > 300 |
| CCOc1ccc2nc(NC(=O)CSc3nc(O)c(C#N)c(-c4ccccc4)n3)sc2c1 | 34.2 |
| COc1cccc2cc(C(=O)NCc3ccc(C)cc3)c(=O)oc12 [8-methoxy-N-(4-methylbenzyl)-2-oxo-2H-chromene-3-carboxamide] | > 300 |
| COc1ccc(C2C(C(C)=O)C(=O)C(=O)N2c2nccs2)c(OC)c1 (stereo not given) [3-acetyl-2-(2,4-dimethoxyphenyl)-4-hydroxy-1-(1,3-thiazol-2-yl)-2H-pyrrol-5-one] | > 300 |
| O=C(NC(Cc1ccccc1)c1ccc2c(c1)OCCCO2)c1ccccc1 (stereo not given) | > 300 |
| CCCSCCCNC(=O)Cn1nc(CC)n2c(cc3c(OC)cccc32)c1=O | > 300 |
| CN(C)Cc1c(C(=O)NN=CCCc2ccccc2)nnn1-c1nonc1N | 21.8 |
| NC(=O)C1CCN(C(=O)c2ccc(Oc3cc(Cl)cc(Cl)c3)o2)CC1 [1-[5-[3,5-bis(chloranyl)phenoxy]furan-2-yl]carbonylpiperidine-4-carboxamide] | > 300 |
| CCCCOc1ccc(/C=C/C(=O)OCC(=O)N2CC(=O)Nc3ccccc32)cc1OCC [[2-oxidanylidene-2-(3-oxidanylidene-2,4-dihydroquinoxalin-1-yl)ethyl] (E)-3-(4-butoxy-3-ethoxy-phenyl)prop-2-enoate] | > 300 |
| COc1ccc(/C=C2/Sc3ccc(C(=O)NCCCN4CCOCC4)cc3NC2=O)cc1OC [(2E)-2-[(3,4-dimethoxyphenyl)methylidene]-N-[3-(4-morpholinyl)propyl]-3-oxo-4H-1,4-benzothiazine-6-carboxamide] | 60.3 |
| CCCN(CCC)Cc1c(C(=O)NN=Cc2cccs2)nnn1-c1nonc1N | 60 |
| COc1cc(CN=Nc2ccc(C(F)(F)F)cn2)ccc1O [(4E)-2-methoxy-4-[[[5-(trifluoromethyl)-2-pyridinyl]hydrazo]methylidene]-1-cyclohexa-2,5-dienone] | 10.1 |
| CCCOc1ccc(-c2c(C(=O)NN=C(C)c3ccco3)nnn2-c2nonc2N)cc1 | 16.6 |
| Cc1ccsc1C1NC(=O)c2c(sc3c2CCCC3)N1 (stereo not given) [MLS000027648] | > 300 |
